The nature of the experiment: Adaptation curves: % odour pulses correctly identified versus inter-stimulus interval (FIGS. 9C, 9D). It counts as in vivo, human. The following applies: pulse length 200 microseconds. An excerpt:
as it applies to individual malodour molecules and individual fragrance molecules is set forth in Jacob et al., “Psychometric Evaluation of Responses to Pleasant and Malodour Stimulation in Human Subjects; Adaptation, Dose Response and Gender Differences”, Int. J. Psychophysiology, (2003). An additional discussion of the model as it applies to olfaction is set forth in Wang et al., “The correlation between physiological and psychological responses to odor stimulation in human subjects” Clinical Neurophysiology 113 (2002) 542-551 at page 546.
wherein Z is the percentage of odour pulses correctly identified;
Y is the pulse duration, or “pulse length” measured in units of microseconds; and
X is the inter-stimulus interval, “ISI”, measured in units of seconds.
FIG. 9C is a set of adaptation curves for the malodour, n-butyric acid, with the vertical axis being the “Z” axis, indicated by reference numeral 90C and the horizontal axis being the “X” axis indicated by reference numeral 92C. The graph indicated by reference numeral 97C and data points therefor 970C is for a pulse length of 35 microseconds. The graph indicated by reference numeral 96C and data points therefor 960C is for a pulse length of 50 microseconds. The graph indicated by reference numeral 95C and data points therefor 950C is for a pulse length of 75 microseconds. […]

These results are taken from patent US20040156742A1, “Synergistically-effective cyclohexylethan-1-yl ester mixtures as malodour counteractants as measured physiologically and psychometrically and methods for using same” (priority 2003, published 2004).

As for `CCCCCOC(C)=O` [amyl acetate], the “percentage of odour pulses correctly identified, Z” value (point 990D on curve 93D: inter-stimulus interval X1=15 seconds, FIG. 9D) turned out to be 54%. Turning to `CCCC(=O)O` [n-butyric acid], the “percentage of odour pulses correctly identified, Z” value (point 990C on curve 93C: inter-stimulus interval X1=12 seconds, FIG. 9C) came to 75%.
